Reference: paper PMC9506414, “Novel 2,6,9-Trisubstituted Purines as Potent CDK Inhibitors Alleviating Trastuzumab-Resistance of HER2-Positive Breast Cancers” (Pharmaceuticals, 2022)

Columns and labels:
Assay in all cases: Kinome-wide inhibition profiling
Type in all cases: biochemical
[1] = target: T1, ACVRL1 (Homo sapiens, UniProt P37023)
T1 construct: purchased Reaction Biology Corp
Method: (§1) In vitro CDK12/cyclinK assays for all compounds and in vitro kinome-wide inhibition profiling of 30d at 10 μM were performed by a CRO company (Reaction Biology Corp., San Diego, CA, USA).

[2] = target: T2, ALK (Homo sapiens, UniProt Q9UM73)
T2 construct: purchased Reaction Biology Corp
Method: as §1

[3] = target: T3, ASK1 (Homo sapiens, UniProt Q99683)
T3 construct: purchased Reaction Biology Corp
Method: as §1

[4] = target: T4, AurkA (Homo sapiens, UniProt O14965)
T4 construct: purchased Reaction Biology Corp
Method: as §1

[5] = target: T5, BMX (Homo sapiens, UniProt P51813)
T5 construct: purchased Reaction Biology Corp
Method: as §1

[6] = target: T6, CAMK1a (Homo sapiens, UniProt Q14012)
T6 construct: purchased Reaction Biology Corp
Method: as §1

[7] = target: T7, CAMK1g (Homo sapiens, UniProt Q96NX5)
T7 construct: purchased Reaction Biology Corp
Method: as §1

[8] = target: T8, CAMKK2 (Homo sapiens, UniProt Q96RR4)
T8 construct: purchased Reaction Biology Corp
Method: as §1

[9] = target: T9, CDK2/cyclinA (Homo sapiens, UniProt P24941)
T9 construct: purchased Reaction Biology Corp
Method: as §1

[10] = target: T10, CDK3/cyclinE (Homo sapiens, UniProt Q00526)
T10 construct: purchased Reaction Biology Corp
Method: as §1

[11] = target: T11, CLK4 (Homo sapiens, UniProt Q9HAZ1)
T11 construct: purchased Reaction Biology Corp
Method: as §1

[12] = target: T12, CSNK1D (Homo sapiens, UniProt P48730)
T12 construct: purchased Reaction Biology Corp
Method: as §1

[13] = target: T13, CSNK2A2 (Homo sapiens, UniProt P19784)
T13 construct: purchased Reaction Biology Corp
Method: as §1

[14] = target: T14, CTK (Homo sapiens, UniProt P42679)
T14 construct: purchased Reaction Biology Corp
Method: as §1

[15] = target: T15, EPHA8 (Homo sapiens, UniProt P29322)
T15 construct: purchased Reaction Biology Corp
Method: as §1

[16] = target: T16, EPHB1 (Homo sapiens, UniProt P54762)
T16 construct: purchased Reaction Biology Corp
Method: as §1

[17] = target: T17, ERK2 (Homo sapiens, UniProt P28482)
T17 construct: purchased Reaction Biology Corp
Method: as §1

[18] = target: T18, FGFR3 (Homo sapiens, UniProt P22607)
T18 construct: purchased Reaction Biology Corp
Method: as §1

[19] = target: T19, FGR (Homo sapiens, UniProt P09769)
T19 construct: purchased Reaction Biology Corp
Method: as §1

[20] = target: T20, FLT4 (Homo sapiens, UniProt P35916)
T20 construct: purchased Reaction Biology Corp
Method: as §1

[21] = target: T21, FYN (Homo sapiens, UniProt P06241)
T21 construct: purchased Reaction Biology Corp
Method: as §1

[22] = target: T22, GRK3 (Homo sapiens, UniProt P35626)
T22 construct: purchased Reaction Biology Corp
Method: as §1

[23] = target: T23, GRK4 (Homo sapiens, UniProt P32298)
T23 construct: purchased Reaction Biology Corp
Method: as §1

[24] = target: T24, HIPK2 (Homo sapiens, UniProt Q9H2X6)
T24 construct: purchased Reaction Biology Corp
Method: as §1

[25] = target: T25, HIPK3 (Homo sapiens, UniProt Q9H422)
T25 construct: purchased Reaction Biology Corp
Method: as §1

[26] = target: T26, IKK-epsilon (Homo sapiens, UniProt Q14164)
T26 construct: purchased Reaction Biology Corp
Method: as §1

[27] = target: T27, JAK1 (Homo sapiens, UniProt P23458)
T27 construct: purchased Reaction Biology Corp
Method: as §1

[28] = target: T28, KSR1 (Homo sapiens, UniProt Q8IVT5)
T28 construct: purchased Reaction Biology Corp
Method: as §1

[29] = target: T29, LCK (Homo sapiens, UniProt P06239)
T29 construct: purchased Reaction Biology Corp
Method: as §1

[30] = target: T30, MINK (Homo sapiens, UniProt Q8N4C8)
T30 construct: purchased Reaction Biology Corp
Method: as §1

[31] = target: T31, NIM1 (Homo sapiens, UniProt Q8IY84)
T31 construct: purchased Reaction Biology Corp
Method: as §1

[32] = target: T32, PKN2 (Homo sapiens, UniProt Q16513)
T32 construct: purchased Reaction Biology Corp
Method: as §1

[33] = target: T33, PKN3 (Homo sapiens, UniProt Q6P5Z2)
T33 construct: purchased Reaction Biology Corp
Method: as §1

[34] = target: T34, PRKCD (Homo sapiens, UniProt Q05655)
T34 construct: purchased Reaction Biology Corp
Method: as §1

[35] = target: T35, PRKCI (Homo sapiens, UniProt P41743)
T35 construct: purchased Reaction Biology Corp
Method: as §1

[36] = target: T36, PRKD2 (Homo sapiens, UniProt Q9BZL6)
T36 construct: purchased Reaction Biology Corp
Method: as §1

[37] = target: T37, PYK2 (Homo sapiens, UniProt Q14289)
T37 construct: purchased Reaction Biology Corp
Method: as §1

[38] = target: T38, RIPK4 (Homo sapiens, UniProt P57078)
T38 construct: purchased Reaction Biology Corp
Method: as §1

[39] = target: T39, ROCK2 (Homo sapiens, UniProt O75116)
T39 construct: purchased Reaction Biology Corp
Method: as §1

[40] = target: T40, TAOK1 (Homo sapiens, UniProt Q7L7X3)
T40 construct: purchased Reaction Biology Corp
Method: as §1

[41] = target: T41, TBK1 (Homo sapiens, UniProt Q9UHD2)
T41 construct: purchased Reaction Biology Corp
Method: as §1

[42] = target: T42, ULK3 (Homo sapiens, UniProt Q6PHR2)
T42 construct: purchased Reaction Biology Corp
Method: as §1

[43] = target: T43, WEE1 (Homo sapiens, UniProt P30291)
T43 construct: purchased Reaction Biology Corp
Method: as §1

[44] = target: T44, YANK3 (Homo sapiens, UniProt Q86UX6)
T44 construct: purchased Reaction Biology Corp
Method: as §1

T10 sequence (Q00526 whole entry): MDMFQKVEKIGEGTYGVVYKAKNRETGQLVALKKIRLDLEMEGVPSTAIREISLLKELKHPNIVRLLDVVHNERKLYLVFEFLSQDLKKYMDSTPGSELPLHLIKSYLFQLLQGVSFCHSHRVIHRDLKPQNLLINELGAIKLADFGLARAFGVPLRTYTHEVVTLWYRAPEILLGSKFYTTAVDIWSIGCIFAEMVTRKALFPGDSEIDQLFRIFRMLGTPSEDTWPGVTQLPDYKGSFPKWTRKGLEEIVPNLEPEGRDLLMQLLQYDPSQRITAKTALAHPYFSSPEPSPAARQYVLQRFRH
T10 sequence (P24864 whole entry partner): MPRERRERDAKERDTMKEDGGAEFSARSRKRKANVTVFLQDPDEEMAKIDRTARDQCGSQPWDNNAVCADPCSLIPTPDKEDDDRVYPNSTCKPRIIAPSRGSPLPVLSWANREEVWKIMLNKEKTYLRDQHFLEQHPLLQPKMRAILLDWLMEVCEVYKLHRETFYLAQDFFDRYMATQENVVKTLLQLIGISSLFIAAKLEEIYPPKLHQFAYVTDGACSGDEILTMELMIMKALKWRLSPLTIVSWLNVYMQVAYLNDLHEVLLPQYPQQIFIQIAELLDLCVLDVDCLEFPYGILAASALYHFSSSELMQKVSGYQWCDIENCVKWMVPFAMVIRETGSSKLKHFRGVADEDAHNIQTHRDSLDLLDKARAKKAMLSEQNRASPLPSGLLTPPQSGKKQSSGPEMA
T36 sequence (Q9BZL6 whole entry): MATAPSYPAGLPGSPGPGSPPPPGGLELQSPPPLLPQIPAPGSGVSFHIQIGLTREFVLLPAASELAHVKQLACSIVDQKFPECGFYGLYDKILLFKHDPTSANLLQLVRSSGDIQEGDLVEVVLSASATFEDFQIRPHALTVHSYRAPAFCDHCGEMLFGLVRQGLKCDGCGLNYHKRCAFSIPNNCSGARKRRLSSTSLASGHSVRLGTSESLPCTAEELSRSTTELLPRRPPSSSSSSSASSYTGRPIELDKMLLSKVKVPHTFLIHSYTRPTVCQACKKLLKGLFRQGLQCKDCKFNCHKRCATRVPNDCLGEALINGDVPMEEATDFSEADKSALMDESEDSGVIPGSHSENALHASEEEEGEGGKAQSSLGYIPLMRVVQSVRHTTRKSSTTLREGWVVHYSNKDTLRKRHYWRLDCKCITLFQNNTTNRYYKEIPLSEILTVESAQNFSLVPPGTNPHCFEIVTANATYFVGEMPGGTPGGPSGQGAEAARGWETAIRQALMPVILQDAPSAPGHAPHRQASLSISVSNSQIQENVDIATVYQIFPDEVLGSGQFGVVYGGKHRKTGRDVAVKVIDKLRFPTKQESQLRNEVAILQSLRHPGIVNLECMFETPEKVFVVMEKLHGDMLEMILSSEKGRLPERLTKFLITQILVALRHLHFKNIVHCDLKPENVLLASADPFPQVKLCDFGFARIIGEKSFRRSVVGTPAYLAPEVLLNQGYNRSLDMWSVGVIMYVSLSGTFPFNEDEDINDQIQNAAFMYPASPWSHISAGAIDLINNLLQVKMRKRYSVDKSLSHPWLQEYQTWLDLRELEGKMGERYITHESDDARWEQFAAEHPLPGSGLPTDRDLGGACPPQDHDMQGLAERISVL
T15 sequence (P29322 28-1005): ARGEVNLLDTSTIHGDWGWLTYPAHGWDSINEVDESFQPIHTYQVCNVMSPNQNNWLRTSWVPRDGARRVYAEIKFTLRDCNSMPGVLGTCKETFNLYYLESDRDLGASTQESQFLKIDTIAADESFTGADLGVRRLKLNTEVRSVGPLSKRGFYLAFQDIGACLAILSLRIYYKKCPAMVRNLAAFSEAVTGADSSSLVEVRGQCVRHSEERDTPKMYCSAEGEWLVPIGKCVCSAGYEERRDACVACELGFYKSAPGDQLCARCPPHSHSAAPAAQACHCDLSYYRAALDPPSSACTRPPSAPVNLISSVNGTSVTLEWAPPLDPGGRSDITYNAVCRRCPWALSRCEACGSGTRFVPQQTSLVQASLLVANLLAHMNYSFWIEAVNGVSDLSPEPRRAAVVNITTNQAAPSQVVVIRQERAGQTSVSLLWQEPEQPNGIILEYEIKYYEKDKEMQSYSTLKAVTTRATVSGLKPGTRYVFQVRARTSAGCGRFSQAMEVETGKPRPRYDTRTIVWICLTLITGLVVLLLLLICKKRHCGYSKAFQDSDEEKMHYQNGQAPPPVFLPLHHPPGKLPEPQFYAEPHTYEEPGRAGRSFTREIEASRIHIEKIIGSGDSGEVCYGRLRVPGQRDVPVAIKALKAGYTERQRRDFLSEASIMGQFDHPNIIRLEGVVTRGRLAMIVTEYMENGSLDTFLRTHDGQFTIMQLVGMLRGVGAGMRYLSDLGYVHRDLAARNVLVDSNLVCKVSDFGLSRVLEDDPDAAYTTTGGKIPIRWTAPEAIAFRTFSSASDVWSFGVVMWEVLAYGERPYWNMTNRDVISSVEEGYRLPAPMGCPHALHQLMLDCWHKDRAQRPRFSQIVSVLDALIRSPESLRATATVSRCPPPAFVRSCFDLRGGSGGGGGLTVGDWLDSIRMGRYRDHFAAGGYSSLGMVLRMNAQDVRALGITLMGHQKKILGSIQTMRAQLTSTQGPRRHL
T41 sequence (Q9UHD2 whole entry): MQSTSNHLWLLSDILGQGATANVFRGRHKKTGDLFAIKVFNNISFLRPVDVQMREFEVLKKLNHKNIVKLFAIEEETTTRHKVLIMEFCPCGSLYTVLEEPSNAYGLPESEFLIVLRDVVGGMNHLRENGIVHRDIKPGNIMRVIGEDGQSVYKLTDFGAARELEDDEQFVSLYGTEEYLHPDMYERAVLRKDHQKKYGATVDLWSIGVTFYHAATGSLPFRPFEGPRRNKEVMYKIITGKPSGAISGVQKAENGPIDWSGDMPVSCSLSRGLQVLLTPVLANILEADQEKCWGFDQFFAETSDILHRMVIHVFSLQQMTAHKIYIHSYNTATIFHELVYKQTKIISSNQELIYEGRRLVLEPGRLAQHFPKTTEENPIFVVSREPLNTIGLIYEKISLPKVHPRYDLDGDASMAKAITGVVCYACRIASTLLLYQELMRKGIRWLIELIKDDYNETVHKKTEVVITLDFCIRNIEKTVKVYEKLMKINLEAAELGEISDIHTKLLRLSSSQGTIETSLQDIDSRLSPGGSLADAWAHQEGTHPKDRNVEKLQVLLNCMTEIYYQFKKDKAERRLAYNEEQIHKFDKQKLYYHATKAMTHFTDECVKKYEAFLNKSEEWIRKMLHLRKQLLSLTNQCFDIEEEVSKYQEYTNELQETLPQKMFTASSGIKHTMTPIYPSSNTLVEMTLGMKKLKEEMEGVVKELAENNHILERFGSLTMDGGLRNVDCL
T17 sequence (P28482 whole entry): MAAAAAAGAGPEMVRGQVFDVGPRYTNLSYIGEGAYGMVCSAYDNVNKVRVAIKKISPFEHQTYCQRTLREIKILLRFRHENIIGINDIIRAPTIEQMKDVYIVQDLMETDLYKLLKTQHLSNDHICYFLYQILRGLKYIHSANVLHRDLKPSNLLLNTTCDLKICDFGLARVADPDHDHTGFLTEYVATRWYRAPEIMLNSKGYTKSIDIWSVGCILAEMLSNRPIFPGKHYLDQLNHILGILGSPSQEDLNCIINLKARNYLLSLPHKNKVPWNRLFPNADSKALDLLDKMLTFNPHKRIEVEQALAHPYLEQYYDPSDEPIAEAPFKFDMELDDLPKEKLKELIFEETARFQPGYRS
T34 sequence (Q05655 whole entry): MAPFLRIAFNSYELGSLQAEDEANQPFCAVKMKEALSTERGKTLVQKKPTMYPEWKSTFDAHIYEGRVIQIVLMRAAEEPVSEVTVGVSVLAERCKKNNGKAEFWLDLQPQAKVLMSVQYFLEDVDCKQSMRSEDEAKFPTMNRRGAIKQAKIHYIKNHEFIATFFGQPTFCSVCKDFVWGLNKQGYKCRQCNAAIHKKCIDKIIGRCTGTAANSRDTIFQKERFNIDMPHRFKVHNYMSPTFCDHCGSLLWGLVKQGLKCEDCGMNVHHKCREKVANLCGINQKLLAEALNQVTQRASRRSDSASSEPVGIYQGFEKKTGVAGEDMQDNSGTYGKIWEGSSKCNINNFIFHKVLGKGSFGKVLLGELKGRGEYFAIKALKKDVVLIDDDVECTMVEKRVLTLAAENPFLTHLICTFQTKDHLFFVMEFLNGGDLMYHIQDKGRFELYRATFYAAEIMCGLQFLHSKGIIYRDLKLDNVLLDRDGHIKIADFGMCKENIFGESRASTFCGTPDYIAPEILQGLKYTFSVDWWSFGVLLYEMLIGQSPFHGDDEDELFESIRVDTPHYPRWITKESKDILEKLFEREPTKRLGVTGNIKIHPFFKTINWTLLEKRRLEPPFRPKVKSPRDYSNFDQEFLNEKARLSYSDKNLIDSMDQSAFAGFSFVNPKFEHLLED
T29 sequence (P06239 whole entry): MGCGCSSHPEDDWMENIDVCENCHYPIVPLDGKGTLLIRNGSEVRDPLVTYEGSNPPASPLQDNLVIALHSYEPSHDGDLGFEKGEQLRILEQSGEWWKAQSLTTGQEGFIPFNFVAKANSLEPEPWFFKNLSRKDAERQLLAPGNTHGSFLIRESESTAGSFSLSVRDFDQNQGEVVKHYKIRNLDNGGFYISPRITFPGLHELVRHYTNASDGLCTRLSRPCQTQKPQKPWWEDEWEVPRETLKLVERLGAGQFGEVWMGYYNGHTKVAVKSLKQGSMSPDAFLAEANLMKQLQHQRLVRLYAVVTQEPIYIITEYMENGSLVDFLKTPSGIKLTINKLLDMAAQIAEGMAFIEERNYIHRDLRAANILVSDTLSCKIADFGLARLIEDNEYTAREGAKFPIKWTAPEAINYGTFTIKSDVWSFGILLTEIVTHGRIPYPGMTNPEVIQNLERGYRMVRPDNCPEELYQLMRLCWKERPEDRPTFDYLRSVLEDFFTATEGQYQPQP

In the case of `CCn1cnc2c(NCc3ccc(-c4ccccn4)nc3)nc(-c3ccc(N)nc3)nc21` [Compound 30d, N-([2,2′-Bipyridin]-5-ylmethyl)-2-(6-aminopyridin-3-yl)-9-ethyl-9H-purin-6-amine], the remaining activity at 10 µM [1] is reported as 105%, the remaining activity at 10 µM [2] is reported as 59.7% and the remaining activity at 10 µM [3] is reported as 18.4%. For the same compound, the remaining activity at 10 µM [4] was 33.4%, the remaining activity at 10 µM [5] was 141% and the remaining activity at 10 µM [6] was 34%. For the same compound, the remaining activity at 10 µM [7] was 54.3%, the remaining activity at 10 µM [8] was 10.6% and the inhibition at 10 µM [9] was over 95%. The remaining activity at 10 µM [9] was 1.2%, the inhibition at 10 µM [10] was over 95% and the remaining activity at 10 µM [10] was 1%. For the same compound, the remaining activity at 10 µM [11] was 28.7%, the remaining activity at 10 µM [12] was 10.2% and the remaining activity at 10 µM [13] was 91.3%. The remaining activity at 10 µM [14] was 87.6%, the remaining activity at 10 µM [15] was 94% and the remaining activity at 10 µM [16] was 13.6%. For the same compound, the remaining activity at 10 µM [17] was 10.6%, the remaining activity at 10 µM [18] was 30.6% and the remaining activity at 10 µM [19] was 54.6%. It also gave a remaining activity at 10 µM [20] of 10%, a remaining activity at 10 µM [21] of 81% and a remaining activity at 10 µM [22] of 102%. The remaining activity at 10 µM [23] was 88.3%, the remaining activity at 10 µM [24] was 81.3% and the remaining activity at 10 µM [25] was 94.1%. The remaining activity at 10 µM [26] was 80.1%, the remaining activity at 10 µM [27] was 92.1% and the remaining activity at 10 µM [28] was 100%. It also gave a remaining activity at 10 µM [29] of 83.6%, a remaining activity at 10 µM [30] of 101% and a remaining activity at 10 µM [31] of 76%. For the same compound, the remaining activity at 10 µM [32] was 85.8%, the remaining activity at 10 µM [33] was 81.6% and the remaining activity at 10 µM [34] was 95.2%. It also gave a remaining activity at 10 µM [35] of 86.1%, a remaining activity at 10 µM [36] of 72.3% and a remaining activity at 10 µM [37] of 47.5%. The remaining activity at 10 µM [38] was 97.8%, the remaining activity at 10 µM [39] was 92.3% and the remaining activity at 10 µM [40] was 28.1%. For the same compound, the remaining activity at 10 µM [41] was 55%, the remaining activity at 10 µM [42] was 91.8% and the remaining activity at 10 µM [43] was 90.2%. It also gave a remaining activity at 10 µM [44] of 86.6%.
